The source of these data is patent US20230125667A1, “NOVEL TDZD ANALOGS AS AGENTS THAT DELAY, PREVENT, OR REVERSE AGE-ASSOCIATED DISEASES AND AS ANTI-CANCER AND ANTILEUKEMIC AGENTS” (United States Government as represented by the Department …, priority 2020, published 2023).

Experiment [1] deals with T1, GSK3β (Homo sapiens, UniProt P49841).
T1 construct: purchased BPS Bioscience
Briefly: GSK3β activity (kinase) assay in vitro. The experiment is classed as biochemical. As to conditions: dose-response curves (FIG. 21). On the procedure: The GSK3β activity assay kit (BPS Bioscience) was used, with modification of the manufacturer's protocol. The assay was done in three replicates at three doses (0.01, 0.1, and 1 μM) of each inhibitor (TDZD8, PNR962) in a 96-well plate, using 1% DMSO (final solvent concentration) as the drug-free control. The kinase assay reaction was incubated for 45 minutes at 30′C and Kinase-Glo Max Assay (Promega) was then added and incubated for 15 minutes at room temperature. A negative control contained all the reagents except the test inhibitors and GSK3β enzyme and positive control contained all reagents except the test inhibitor. SpectraMax M3 (Molecular Devices, LLC) was used as a microplate reader. The luminescence negative control reading was used as 0% activity, positive control reading was used as 100% activity and kinase assay was based on the fact that all the reading in wells with test inhibitor, should lie between these values of negative control and positive controls. GSK3β inhibitions were calculated after subtracting negative control values from all the wells and graphs were generated using GraphPad Prism.
The best predicted inhibitors were synthesized, and screened in both human neuronal cells, and in C. elegans models of neurodegeneration. These compounds were also tested for their ability to inhibit GSK3β activity in vitro.

Experiment [2] has as its system C. elegans strain CL4176. Briefly: Amyloid-associated paralysis in C. elegans strain CL4176. The conditions noted are these: after induction of Aβ1-42 in muscle (FIG. 5). The experiment is classed as in vivo.
Experiment [3] has as its system C. elegans strain AM141. Kind of experiment: Q40::YFP aggregates in C. elegans strain AM141. The experiment is classed as in vivo. As for the experimental part: Several TDZD-conjugated drugs (putative GSK-3 inhibitors) were evaluated for their ability to reduce accumulation of protein aggregates, and for protection against aggregation-associated end-points in the following model systems: (i.) SH-SY5Y-APPSw, a neuroblastoma cell line expressing the Swedish mutation of Amyloid Precursor Protein (APPSw), and thus predisposed to form β-amyloid deposits; (ii.) C. elegans strain CL4176, a model of Alzheimer-like amyloidopathy that can be induced to express human Aβ1-42 in muscle, or may express it at a lower level without induction; (iii.) C. elegans strain AM141, a model of Huntington-like polyglutamine aggregation that constitutively expresses Q40::YFP (a tract of 40 glutamines fused in-frame to yellow fluorescent protein) in muscle cells and forms aggregates progressively with adult aging. The TDZD analog PNR-962 (a putative GSK-3 inhibitor) and other related compounds (not shown) were protective in all aggregation assays.
Fresh agar plates supporting bacterial lawns, which serve as food for C. elegans, were prepared at least 1 day ahead of use. C. elegans AM141 (forming Q40::YFP aggregates in muscle, progressively in early adulthood) were placed on these 100-mm plates. Day-4 adult worms were lysed with alkaline hypochlorite solution to obtain eggs from worms, a procedure that permits synchronization of worms in a cohort. Eggs were placed on plates spotted with different concentrations of TDZD analogues after allowing the compounds to be evenly distributed on the plates (˜1 hour after adding drugs to plates). Vehicle-only (DMSO) controls are included in each experiment, as a baseline for drug effects in experimental groups. Young-adult AM141 (day-3 adults) were transferred on alternate days onto fresh plates that contained the same doses of compounds, with fresh E. coli to prevent starvation of worms. Equal samples (n=25) were randomly picked from experimental groups and control group for microscopic imaging. Using an in-house plugin for ImageJ software (NIH), several images of AM141 were processed for aggregate count per worm. The fluorescence intensity of each aggregate (indicating the size/content of protein aggregates) was also measured. Each drug treatment was repeated multiple times to validate the results.

Entries after “also recorded” stand apart in the source; their conditions may differ.

T1 sequence (P49841 whole entry): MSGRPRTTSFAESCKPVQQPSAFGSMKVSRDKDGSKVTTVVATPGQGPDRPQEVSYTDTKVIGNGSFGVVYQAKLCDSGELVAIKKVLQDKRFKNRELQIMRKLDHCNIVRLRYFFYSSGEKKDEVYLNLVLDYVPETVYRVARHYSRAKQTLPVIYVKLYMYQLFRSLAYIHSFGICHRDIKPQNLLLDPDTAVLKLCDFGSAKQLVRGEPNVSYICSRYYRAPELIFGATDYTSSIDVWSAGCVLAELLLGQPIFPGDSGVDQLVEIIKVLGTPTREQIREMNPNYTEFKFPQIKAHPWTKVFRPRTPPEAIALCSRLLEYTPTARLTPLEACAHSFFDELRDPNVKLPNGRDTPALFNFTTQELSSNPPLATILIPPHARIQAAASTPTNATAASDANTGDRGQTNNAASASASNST

`O=c1sn(CCI)c(=O)n1Cc1ccccc1` [PNR-962]: in experiment [1], the “ability to inhibit GSK3β activity in vitro” value was “markedly superior to TDZD8”. Further, in experiment [2], the “paralysis rescued / reduced” value is given as > 75%. For the same compound, in experiment [3] (5-μM, 3 days of exposure (FIG. 6)), the “number of Q40::YFP aggregates” value is on record as “reduces huntingtin-like aggregates; also recorded: reduced the number of aggregates significantly”. Further, the “number of aggregation foci” value in experiment [3] (C. elegans model of Huntington's Disease (FIG. 7)) is “decreases”. Moreover, in experiment [3] (not shown), the “aggregate intensity (content of Q40-YFP)” value is given as “reduced aggregate intensity”.
